Reference: PMC7193532 (Acta Crystallographica. Section D, Structural Biology, 2020)
Values after ≈ are worked out from the molar mass of the structure shown. *1 amine or outer side, *2 acyl side, *3 side chain or, on linkers, in order; H or OH if unused. Where a SMILES comes first, the peptide text is derived from it. Bridges are numbered along the chain shown (N, C = ends). [ ]: non-standard residue; d: D form. The star is where a group is joined. ξ: configuration not given here. Phe(3R-OH) = O=C([C@@H](N[*:1])[C@H](O[*:3])c1ccccc1)[*:2]; NMeTrp(4-OMe) = CN[CH](Cc1c[nH]c2cccc(OC)c12)C(=O)O; X1 = O=C(C(N[*:1])C(O)c1ccccc1)[*:2]; NMeT = CN[CH](C(=O)O)[CH](C)O; NMeI = CC[CH](C)[CH](NC)C(=O)O; ξNMe2Val = CC(C)C(C(=O)*)N(C)C; NMeL = CN[CH](CC(C)C)C(=O)O; NMeV = CN[CH](C(=O)O)C(C)C

Tests used:
[1] = co-crystallization attempts
ClpC1-FL = ClpC1-FL (Mycobacterium tuberculosis, UniProt P9WPC9); assay type: binding; conditions: for Stoichiometry (Sm): calculated from SPR responses, compound molecules per ClpC1; for improvement of χ^2, multi-site versus one-site fit: multi-site fit better; for difference between Kd1 and Kd2: multi-site model
ClpC1 [2] = conditions: cited from earlier work
[3] = system: ClpC1–ClpP1–ClpP2 complex; conditions: 2019, cited from earlier work; for effect on proteolytic activity: ECU, lassomycin: ref Choules et al., Gavrish et al., 2014; for effect on proteolysis: CYMA, RUF-I: ref Schmitt et al., 2011, Choules et al.
[4] = target: N-terminal domain of ClpC1 (ClpC1-NTD), residues 1-145 plus a C-terminal His tag (Mycobacterium tuberculosis) (UniProt P9WPC9); assay: crystal structure
[5] = target: full-length ClpC1 (ClpC1-FL) (Mycobacterium tuberculosis) (UniProt P9WPC9); assay: SPR
ClpC1 [6] = conditions: cited from earlier work; remark: listed apart in the source

Which “solubility (in words)” value [1] does the source give for CCC(C)C(C(=O)NC1C(=O)N(C)C(C(C)O)C(=O)NC(C(C)C)C(=O)N(C)C(CC(C)C)C(=O)NC(C(C)C)C(=O)N(C)C(C(C)C)C(=O)N(C)C(Cc2c[nH]c3cccc(OC)c23)C(=O)NC(C(C)C)C(=O)NC(C(O)c2ccccc2)C(=O)NC(C(C)C)C(=O)OC1C)N(C)C(=O)C(NC(=O)C(C(C)C)N(C)C)C(C)C (stereo not drawn) [ECU, ecumicin] (ξNMe2Val-V[NMeI]T[NMeT]V[NMeL]V[NMeV][NMeTrp(4-OMe)]V[X1]V; ester 3-C; configuration not given here) here?
The value was “poor solubility”.

And the “χ^2 of one-site fit” value (ClpC1-FL; 1:1 Langmuir model, smaller = better fit)?
Its value is 16.1.

And the “Stoichiometry (Sm)” value (ClpC1-FL)?
The value was 2.2.

What about the “χ^2 of multi-site fit” value (ClpC1-FL; heterogeneous ligand model, smaller = better fit) of the same compound?
The value was 3.2.

What about the “improvement of χ^2, multi-site versus one-site fit” value (ClpC1-FL) of the same compound?
The value was “fivefold”.

What about the “difference between Kd1 and Kd2” value (ClpC1-FL) of the same compound?
Its value is “about 18 fold”.

What about the “effect on ATPase activity” value (ClpC1 [2]) of the same compound?
Its value is “activate the ATPase activity”.

And the “enhancement of ATPase activity of ClpC1” value (ClpC1 [2])?
Its value is “at least twofold”.

What about the MIC90 (Mtb) of the same compound?
The MIC90 was 0.11 ± 0.013 µM (≈ 0.176 µg/mL).

And the “effect on proteolytic activity” value [3]?
The value was “decrease the proteolytic activity”.

With cyclomarin A [CYMA, reference compound] as the compound, how does the “effect on ATPase activity” value (ClpC1 [2]) read?
The value was “no effect on the ATPase activity”.

And the effect on proteolysis [3]?
Its effect on proteolysis is “activation”.

What does the source list for ecumicin (ECU) (peptide)?
stoichiometry N (ECU per ClpC1-NTD) [4]: 2; stoichiometry N [5]: 2.2

What does the source list for ohmyungsamycin B (OMS-B) (peptide)?
Kd1 (site 1, multi-site fit) [5]: 962 nM; Kd2 (site 2, multi-site fit) [5]: 1740 nM

Which “Stoichiometry (Sm)” value (ClpC1-FL) does the source give for CN[C@H](C(=O)N[C@H](C(=O)N[C@@H]1C(=O)N(C)[C@@H]([C@@H](C)O)C(=O)N[C@@H](C(C)C)C(=O)N(C)[C@@H](CC(C)C)C(=O)N[C@@H](C(C)C)C(=O)N(C)[C@@H](C(C)C)C(=O)N(C)[C@@H](Cc2c[nH]c3cccc(OC)c23)C(=O)N[C@@H](C(C)C)C(=O)N[C@@H]([C@H](O)c2ccccc2)C(=O)N[C@@H](C(C)C)C(=O)O[C@@H]1C)C(C)C)C(C)C [OMS-A, ohmyungsamycin A] (H-[NMeV]VT[NMeT]V[NMeL]V[NMeV][NMeTrp(4-OMe)]V[Phe(3R-OH)]V; ester 3-C) here?
Its value is 2.2.

What about the “improvement of χ^2, multi-site versus one-site fit” value (ClpC1-FL) of the same compound?
Its value is “threefold”.

What about the “difference between Kd1 and Kd2” value (ClpC1-FL) of the same compound?
The value was “fivefold”.

For lassomycin [reference compound], which “effect on ATPase activity” value (ClpC1 [2]) is on record?
The value was “activate the ATPase activity”.

What about the “effect on proteolytic activity” value [3] of the same compound?
The value was “decrease the proteolytic activity”.

For ohmyungsamycin A (OMS-A) (peptide), which stoichiometry N [5] is on record?
The stoichiometry N was 2.2.

What does the source list for C/C=C/C[C@@H]1NC(=O)[C@H](CC(C)C)N(C)C(=O)[C@H](CC(C)C)NC(=O)[C@H](Cc2ccc(O)c([N+](=O)[O-])c2)NC(=O)[C@H](C)N2C(=O)[C@H](CC(C)C2O)N(C)C(=O)[C@H](Cc2cn(C(C)(C)C3CO3)c3ccccc23)NC1=O (stereo partly drawn) [RUF-I, rufomycin I]?
effect on ATPase activity (ClpC1 [2]): no significant effect; enhancement of ATPase activity of ClpC1 (ClpC1 [2]): no significant effect; effect on proteolysis [3]: inhibition; binding in the presence of ECU (ClpC1 [6]): cannot bind in the presence of ECU

With ohmyungsamycin B [OMS-B] as the compound, how does the “reduction in binding relative to ECU” value (ClpC1-FL; structural analogs of ECU) read?
Its value is “tenfold”.
